Experimental data as given in ChEMBL document CHEMBL1122894, “Preparation of 20-(hydroxymethyl)-4-methyl-4-aza-2-oxa-5 alpha-pregnan-3-one as an inhibitor of testosterone 5 alpha-reductase” (J Med Chem, 1985).

Experiments:
[1] = Compound was evaluated for in vitro inhibition of Testosterone 5 alpha-Reductase using substrate concentration 3 x 10e-7 M; set-up: species or system Rattus norvegicus
[2] = species: Rattus norvegicus; test: Comparative activity against Testosterone 5 alpha-Reductase evaluated by setting Ki of 7-(2-Hydroxy-1-methyl-ethyl)-1,4a,6a-trimethyl-hexadecahydro-indeno[5,4-f]quinolin-2-one at 1

Row | Ki [1] [nM] | Relative activity [2] | SMILES
1 | 120 |  | CC(CO)C1CCC2C3CC[C@H]4N(C)C(=O)OCC4(C)C3CCC12C (stereo not given in full)
2 | 400 |  | CC(CO)C1CCC2C3CC[C@H]4N(C)C(=S)OCC4(C)C3CCC12C (stereo not given in full)
3 | 7.3 |  | CCN(CC)C(=O)[C@H]1CC[C@H]2[C@@H]3CC[C@H]4N(C)C(=O)CC[C@]4(C)[C@H]3CC[C@]12C
4 | 3.8 | 1 | CC(CO)C1CCC2C3CC[C@H]4N(C)C(=O)CCC4(C)C3CCC12C (stereo not given in full)
